Assay results reported in ChEMBL document CHEMBL3351946, “Design and synthesis of potent antitumor water-soluble phenyl N-mustard-benzenealkylamide conjugates via a bioisostere approach” (Eur J Med Chem, 2014).
Activity calls are given as the source filed them. The calls are words filed in the database; no cut-off is given here.

Key:
Mus musculus [1] = test: Toxicity in nude mouse xenografted with human PC3 cells assessed as body weight loss at 50 mg/kg,iv administered every 2 days for 5 doses measured on day 16 relative to control; format: organism-based, PC-3; design: dose 50 mg/kg; conditions: in vivo, 48 h
[2] = Cell cycle arrest in human HCT116 cells assessed as accumulation at G1 phase at 1 uM after 48 hrs by FACS flow cytometric analysis (reference value: 62.16 +/- 5.94%); format: functional, cell-based; conditions: HCT-116
[3] = Cell cycle arrest in human HCT116 cells assessed as accumulation at sub-G1 phase at 1 uM after 48 hrs by FACS flow cytometric analysis (reference value: 1.65 +/- 0.06%); format: functional, cell-based; conditions: HCT-116
HCT-116 = test: Induction of DNA interstand crosslinking in human HCT116 cells under aerobic condition assessed as decrease in tail moment at 0.5 to 1 uM preincubated for 1 hr followed by 20 Gy X-ray irradiation by comet assay; format: cell-based
[4] = Toxicity in iv dosed CD-1 (ICR) mouse measured for 14 days; format: organism-based; conditions: in vivo
[5] = Antitumor activity against human H460 cells xenografted in nude mouse assessed as tumor growth inhibition at 30 mg/kg,iv qd administered for 6 days measured on day 37 relative to control; format: functional; conditions: NCI-H460, iv, read-out: TGI
[6] = Cell cycle arrest in human HCT116 cells assessed as accumulation at sub-G1 phase at 2 uM after 48 hrs by FACS flow cytometric analysis (reference value: 1.65 +/- 0.06%); format: functional, cell-based; conditions: HCT-116
HT-29 = test: Cytotoxicity against human HT-29 cells assessed as growth inhibition after 72 hrs by Alamar Blue assay; format: functional, cell-based; conditions: HT-29, 72 h
[7] = Terminal half life in Sprague-Dawley rat at 5 mg/kg, iv; format: ADME, organism-based; design: dose 5 mg/kg, route intravenous; conditions: in vivo, read-out: beta t1/2 (converted)
[8] = Cell cycle arrest in human HCT116 cells assessed as accumulation at G1 phase at 2 uM after 24 hrs by FACS flow cytometric analysis (reference value: 48.75 +/- 3.69%); format: functional, cell-based; conditions: HCT-116
[9] = Cell cycle arrest in human HCT116 cells assessed as accumulation at sub-G1 phase at 2 uM after 72 hrs by FACS flow cytometric analysis (reference value: 3.29 +/- 1.39%); format: functional, cell-based; conditions: HCT-116
[10] = Cell cycle arrest in human HCT116 cells assessed as accumulation at S phase at 1 uM after 24 hrs by FACS flow cytometric analysis (reference value: 18.71 +/- 2.25%); format: functional, cell-based; conditions: HCT-116
[11] = Cytotoxicity against human H3347 cells assessed as growth inhibition after 72 hrs by Alamar Blue assay; format: functional, cell-based; conditions: H3347, 72 h
[12] = Cell cycle arrest in human HCT116 cells assessed as accumulation at G2/M phase at 1 uM after 72 hrs by FACS flow cytometric analysis (reference value: 12.82 +/- 2.19%); format: functional, cell-based; conditions: HCT-116
[13] = Antitumor activity against human HCT116 cells xenografted in nude mouse assessed as tumor growth inhibition at 30 mg/kg,iv qd administered for 6 days measured on day 15 relative to control; format: functional, HCT-116
Mus musculus [14] = test: Induction of apoptosis in HCT116 cells xenografted in nude mouse at 30 mg/kg, iv qd administered for 6 days measured 24 hrs post last dose by hematoxylin and eosin staining; format: functional, organism-based; design: dose 30 mg/kg; conditions: HCT-116
[15] = Cell cycle arrest in human HCT116 cells assessed as accumulation at G2/M phase at 4 uM after 48 hrs by FACS flow cytometric analysis (reference value: 23.95 +/- 1.87%); format: functional, cell-based; conditions: HCT-116
[16] = Cell cycle arrest in human HCT116 cells assessed as accumulation at G2/M phase at 4 uM after 24 hrs by FACS flow cytometric analysis (reference value: 31.55 +/- 4.63%); format: functional, cell-based; conditions: HCT-116
[17] = Cell cycle arrest in human HCT116 cells assessed as accumulation at G1 phase at 1 uM after 24 hrs by FACS flow cytometric analysis (reference value: 48.75 +/- 3.69%); format: functional, cell-based; conditions: HCT-116
Mus musculus [18] = test: Toxicity in iv dosed CD-1 (ICR) mouse assessed as swelling of mouth measured for 14 days; format: organism-based; conditions: in vivo, 336 h
[19] = Cell cycle arrest in human HCT116 cells assessed as accumulation at G2/M phase at 1 uM after 48 hrs by FACS flow cytometric analysis (reference value: 23.95 +/- 1.87%); format: functional, cell-based; conditions: HCT-116
Mus musculus [20] = test: Toxicity in nude mouse xenografted with human PC3 cells assessed as change in body weight at 40 mg/kg,iv administered every 2 days for 5 doses measured on day 38 relative to control; format: organism-based, PC-3; design: dose 40 mg/kg; conditions: in vivo, 48 h
CCRF-CEM = test: Cytotoxicity against vinblastine-resistant human CCRF-CEM cells assessed as growth inhibition after 72 hrs by Alamar Blue assay; format: functional, cell-based
Mus musculus [21] = test: Toxicity in iv dosed CD-1 (ICR) mouse assessed as soft feces measured for 14 days; format: organism-based; conditions: in vivo, 336 h
Mus musculus [22] = test: Toxicity in nude mouse xenografted with human PC3 cells assessed as change in body weight at 50 mg/kg,iv administered every 2 days for 5 doses measured on day 38 relative to control; format: organism-based, PC-3; design: dose 50 mg/kg; conditions: in vivo, 48 h
[23] = Antitumor activity against human H3347 cells xenografted in nude mouse assessed as tumor growth inhibition at 30 mg/kg,iv qd administered for 6 days measured on day 31 relative to control; format: functional; conditions: read-out: TGI
[24] = Antitumor activity against human HCT116 cells xenografted in nude mouse assessed as tumor growth inhibition at 30 mg/kg,iv qd administered for 6 days measured on day 31 relative to control; format: functional; conditions: HCT-116, iv, read-out: TGI
[25] = Cell cycle arrest in human HCT116 cells assessed as accumulation at S phase at 4 uM after 48 hrs by FACS flow cytometric analysis (reference value: 12.11 +/- 4.28%); format: functional, cell-based; conditions: HCT-116
Mus musculus [26] = test: Toxicity in CD-1 (ICR) mouse assessed as gross lesions in spleen at 150 mg/kg, iv measured for 14 days; format: organism-based; design: dose 150 mg/kg, route intravenous; conditions: in vivo, 336 h
Mus musculus [27] = test: Toxicity in nude mouse xenografted with human PC3 cells assessed as body weight loss at 30 mg/kg,iv qd administered for 6 days measured on day 13 relative to control; format: organism-based, PC-3; design: dose 30 mg/kg; conditions: in vivo, 144 h
[28] = Cell cycle arrest in human HCT116 cells assessed as accumulation at S phase at 4 uM after 24 hrs by FACS flow cytometric analysis (reference value: 18.71 +/- 2.25%); format: functional, cell-based; conditions: HCT-116
Mus musculus [29] = test: Toxicity in nude mouse xenografted with human PC3 cells assessed as body weight loss at 40 mg/kg,iv administered every 2 days for 5 doses measured on day 16 relative to control; format: organism-based, PC-3; design: dose 40 mg/kg; conditions: in vivo, 48 h
Mus musculus [30] = test: Induction of apoptosis in HCT116 cells xenografted in nude mouse at 30 mg/kg, iv qd administered for 6 days measured 24 hrs post last dose by TUNEL assay; format: functional, organism-based; design: dose 30 mg/kg; conditions: HCT-116
[31] = Cell cycle arrest in human HCT116 cells assessed as accumulation at sub-G1 phase at 1 uM after 72 hrs by FACS flow cytometric analysis (reference value: 3.29 +/- 1.39%); format: functional, cell-based; conditions: HCT-116
[32] = Cell cycle arrest in human HCT116 cells assessed as accumulation at S phase at 2 uM after 72 hrs by FACS flow cytometric analysis (reference value: 7.49 +/- 0.95%); format: functional, cell-based; conditions: HCT-116
Mus musculus [33] = test: Toxicity in iv dosed CD-1 (ICR) mouse assessed as hunch posture measured for 14 days; format: organism-based; conditions: in vivo, 336 h

With `CCN(CC)CC(=O)Nc1ccc(NC(=O)Nc2ccc(N(CCCl)CCCl)cc2)cc1` the “%max” value (Mus musculus [1]) was -16%, the Activity [2] was 49.6% and the Activity [3] was 9.86%. For the same molecule, the Activity (HCT-116) was “Active”, the LD50 at 336 h [4] was 115 mg/kg and the inhibition in vivo at 30 mg/kg [5] was 53%. It also gave an Activity [6] of 8.48%, an IC50 (HT-29) of 19000 nM and a half-life [7] of 21.6 min. The Activity [8] was 11.8%, the Activity [9] was 19.7% and the Activity [10] was 18.7%. The IC50 [11] was 870 nM, the Activity [12] was 20.5% and the “%max” value [13] was 91%. The Activity (Mus musculus [14]) was “Active”, the Activity [15] was 54.1% and the Activity [16] was 56.3%. The Activity [17] was 17.3%, the Activity (Mus musculus [18]) was “Dose-dependent effect” and the Activity [19] was 28.2%. For the same molecule, the Activity (Mus musculus [20]) was -12%, the IC50 (CCRF-CEM) was 2160 nM and the Activity (Mus musculus [21]) was “Dose-dependent effect”. For the same molecule, the Activity (Mus musculus [22]) was -8%, the inhibition in vivo at 30 mg/kg [23] was 90% and the inhibition in vivo at 30 mg/kg [24] was 84%. The Activity [25] was 16.6%, the Activity (Mus musculus [26]) was “Toxic” and the “%max” value (Mus musculus [27]) was -15%. For the same molecule, the Activity [28] was 27.6%, the “%max” value (Mus musculus [29]) was -15% and the Activity (Mus musculus [30]) was “Active”. The Activity [31] was 12.4%, the Activity [32] was 12.1% and the Activity (Mus musculus [33]) was “Dose-dependent effect”.
